These results are taken from patent US7109193B2, “Tricyclic diazepines tocolytic oxytocin receptor antagonists” (Wyeth, priority 2001, dated 2006).

Molecules are shown by their SMILES.

The target in the experiment is T1, human vasopressin V1a receptor subtype (Homo sapiens, UniProt P37288).
T1 construct: host or cells: CHO cells (pZeoSV vector for the Thibonnier line)
T1 sequence (P37288 whole entry): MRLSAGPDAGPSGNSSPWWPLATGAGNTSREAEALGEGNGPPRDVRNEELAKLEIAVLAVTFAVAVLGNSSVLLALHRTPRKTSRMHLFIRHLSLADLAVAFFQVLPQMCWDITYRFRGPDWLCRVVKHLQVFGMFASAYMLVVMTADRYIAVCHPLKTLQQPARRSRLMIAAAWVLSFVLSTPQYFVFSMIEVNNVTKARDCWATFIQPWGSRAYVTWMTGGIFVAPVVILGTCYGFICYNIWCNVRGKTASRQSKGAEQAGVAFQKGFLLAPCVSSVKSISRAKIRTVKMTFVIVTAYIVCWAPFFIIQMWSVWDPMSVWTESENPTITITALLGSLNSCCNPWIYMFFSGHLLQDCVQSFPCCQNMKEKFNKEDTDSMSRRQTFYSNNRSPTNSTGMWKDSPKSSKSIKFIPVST
Kind of experiment: Vasopressin binding in Chinese Hamster Ovary cell membranes expressing human vasopressin V1a subtype receptors. As to conditions: 100 nM, CHO cell membranes, [3H]Manning ligand, values without parentheses. The method, then: Vasopressin Binding in Chinese Hamster Ovary Cell Membranes Expressing Human Vasopressin V1a Subtype Receptors
The trypsin is removed by aspiration and the cells dislodged by tapping. Cell Culture medium (e.g. 30 mL for 1:30 split) is immediately added and mixed well to inactivate trypsin. 1 mL of detached cells is added to new culture flasks containing fresh cell culture medium (e.g., into 25 mL per T-150 flask), and mixed gently. The cells are incubated at 37° C. in 5% CO2. The medium is changed at 3 to 4 days interval (or as appropriate). […] All steps are done under sterile conditions. B. Membrane Preparation: The cells are washed twice gently with Hank's Balanced Salt solution (e.g,. use 10 mL per T-150 flask). […] The contents are transferred to centrifuge tubes (50 mL) kept in an ice bath. All subsequent steps are done at 4° C. The tubes are centrifuged at 300×g for 15 min (1380 rpm on SORVAL, Model RT6000D, using the rotor for 50 mL tubes). The supernatant is discarded and the cells suspended in homogenizing buffer(10 mM Tris-HCl containing 0.25 M sucrose and 1 mM EDTA, pH 7.4) ensuring that the volume of the buffer is about ten times the volume of the cell pellet. The cells are pooled into a centrifuge tube (50 mL) and homogenized with a Polytron at setting 6 for 10 sec. The homogenate is transferred into a Potter-Elvjehm homogenizer and homogenized with 3 strokes. The homogenate is centrifuged at 1500×g for 10 min at 4° C. (3100 rpm using SORVAL, model RT6000D, using the rotor for 50 mL tubes). The pellet is discarded. The supernatant is centrifuged at 100,000×g for 60 min. at 4° C. (Beckman L8-80M ultracentrifuge; spin at 37,500 rpm with rotor type 70 Ti for 50 mL tubes; 38,000 rpm with type 80Ti for 15 mL tubes; or 35,800 rpm with rotor type 45Ti). The supernantant is discarded and the pellet suspended in 3 to 4 mL of Tris buffer (50 mM TRIS-HCl, pH 7.4). The protein content is estimated by the Bradford or Lowry method. The volume of the membrane suspension is adjusted with the membrane buffer (50 mM Tris-HCl containing 0.1% BSA and 0.1 mM PMSF) to give 3.0 mg/mL (or as appropriate) of protein. The membranes are aliquoted and stored at −70° C. C. Radioligand Binding Assay: In wells of a 96-well format microtiter plate, is added 90, 110 or 130 μL (to make up a final volume of 200 μL) of assay buffer containing 50 mM of Tris-HCl (pH 7.4), BSA (heat inactivated, protease-free), […], 1 mg % aprotinin, 1 mg % leupeptin, 2 mg % 1,10-phenanthroline, 10 mg % trypsin inhibitor, and 0.1 mM PMSF. The inhibitors are added on the day of the experiment. The components are mixed at room temperature, and then kept in ice bath following adjustment of the pH to 7.4. […] 20 μL of 50% DMSO is added for Manning and other peptide ligands and the assay buffer volume is adjusted accordingly. To each well is added 50 μL of frozen membrane suspension thawed immediately prior to use and diluted in the assay buffer to the required concentration (equivalent to 25 to 50 μg of protein/well as needed). 20 μL of 8 nM [^3H]Manning ligand in the assay buffer, prepared just before use, is added, and incubated at room temperature for 60 min. shaking the plate on a mechanical shaker for the first 15 min. The incubation is stopped by rapid filtration of the plate contents followed by wash with ice-cold buffer (50 mM Tris-HCl, pH 7.4) using a cell harvester (Tomtek and Printed filtermat-B filter paper). The filter paper is thoroughly dried (7–12 min. in a microwave oven) and impregnated with MeltiLex B/H melt-on scintillation wax sheets and the radioactivity counted in a betaplate scintillation counter.
Binding data is either reported as percent inhibition at a certain concentration or if an IC50 was calculated, as a nanomolar concentration.
As to `COc1cc2c(cc1OC)N(C(=O)c1ccc(-c3ccccc3C(F)(F)F)c(C)c1)Cc1ccc(C(=O)N(C)CCCN(C)C)n1C2.Cl` [Example 13, N-Methyl-[N-(3-dimethylamino)propyl]-7,8-dimethoxy-10-{[2-methyl-2′-(trifluoromethyl)[1,1′-biphenyl]-4-yl]carbonyl}-10,11-dihydro-5H-pyrrolo[2,1-c][1,4]benzodiazepine-3-carboxamide hydrochloride salt], the “V1a % inhibition @ 100 nM” value was 4%.
Consider `COc1cc(C(=O)N2Cc3ccc(C(=O)N4CC[C@@H](N(C)C)C4)n3Cc3ccccc32)ccc1-c1ccccc1C` [Example 281, [(3R)-3-(Dimethylamino)pyrrolidinyl]{10-[(2-methoxy-2′-methyl[1,1′-biphenyl]-4-yl)carbonyl]-10,11-dihydro-5H-pyrrolo[2,1-c][1,4]benzodiazepin-3-yl}methanone], for which the “V1a % inhibition @ 100 nM” value was found to be 58%.
Same read-out and setting: then `COc1cc(C(=O)N2Cc3ccc(C(=O)N(C)CCCN(C)C)n3Cc3ccccc32)ccc1-n1c(C)ccc1C` [Example 310, N-[3-(Dimethylamino)propyl]-10-[4-(2,5-dimethyl-i H-pyrrol-1-yl)-3-methoxybenzoyl]-N-methyl-10,11-dihydro-5H-pyrrolo[2,1-c][1,4]benzodiazepine-3-carboxamide], with 4%.
For orientation: inhibition means how much of the control response was suppressed. For the compound `COc1cccc(-c2ccc(C(=O)N3Cc4ccc(C(=O)N5CCC(N6CCCC6)CC5)n4Cc4ccccc43)cc2C)c1` [Example 139, {10-[(3′-Methoxy-2-methyl[1,1′-biphenyl]-4-yl)carbonyl]-10,11-dihydro-5H-pyrrolo[2,1-c][1,4]benzodiazepin-3-yl}[4-(1-pyrrolidinyl)-1-piperidinyl]methanone], the inhibition at 0.1 µM was found to be 9%.
On the same count and under the same terms, then `Cc1ccccc1-c1ccc(C(=O)N2Cc3ccc(C(=O)NCCN4CCCCC4)n3Cc3ccccc32)cc1C` [Example 150, 10-[(2,2′-Dimethyl[1,1′-biphenyl]-4-yl)carbonyl]-N-[2-(1-piperidinyl)ethyl]-10,11-dihydro-5H-pyrrolo[2,1-c][1,4]benzodiazepine-3-carboxamide], with 42%.
In the case of `COc1ccccc1-c1ccc(C(=O)N2Cc3ccc(C(=O)N4CC[C@@H](N(C)C)C4)n3Cc3ccccc32)cc1` [Example 279, [(3R)-3-(Dimethylamino)pyrrolidinyl]{10-[(2′-methoxy[1,1′-biphenyl]-4-yl)carbonyl]-10,11-dihydro-5H-pyrrolo[2,1-c][1,4]benzodiazepin-3-yl}methanone], the “V1a % inhibition @ 100 nM” value is on record as 39%.
With `Cc1ccccc1-c1ccc(C(=O)N2Cc3ccc(C(=O)NCCCn4ccnc4)n3Cc3ccccc32)cc1C` [Example 124, 10-[(2,2′-Dimethyl[1,1′-biphenyl]-4-yl)carbonyl]-N-[3-(1H-imidazol-1-yl)propyl]-10,11-dihydro-5H-pyrrolo[2,1-c][1,4]benzodiazepine-3-carboxamide], the inhibition at 0.1 µM stood at 16%.
Take `COc1ccccc1-c1ccc(C(=O)N2Cc3ccc(C(=O)N4CCC[C@H]4CN4CCCC4)n3Cc3ccccc32)cc1` [Example 265, {10-[(2′-Methoxy[1,1′-biphenyl]-4-yl)carbonyl]-10,11-dihydro-5H-pyrrolo[2,1-c][1,4]benzodiazepin-3-yl}[(2S)-2-(1-pyrrolidinylmethyl)pyrrolidinyl]methanone]: the “V1a % inhibition @ 100 nM” value was 31%.
For `COc1cc(C(=O)N2Cc3ccc(C(=O)N4CCC(N5CCCCC5)CC4)n3Cc3ccccc32)ccc1-c1ccccc1C` [Example 116, {10-[(2-Methoxy-2′-methyl[1,1′-biphenyl]-4-yl)carbonyl]-10,11-dihydro-5H-pyrrolo[2,1-c][1,4]benzodiazepin-3-yl}[4-(1-piperidinyl)-1-piperidinyl]methanone], the inhibition at 0.1 µM was 42%.
On the same count and under the same terms, then `Cc1ccccc1-c1ccc(C(=O)N2Cc3ccc(C(=O)N4CCC(N5CCCCC5)CC4)n3Cc3ccccc32)cc1` [Example 115, {10-[(2′-Methyl[1,1′-biphenyl]-4-yl)carbonyl]-10,11-dihydro-5H-pyrrolo[2,1-c][1,4]benzodiazepin-3-yl}[4-(1-piperidinyl)-1-piperidinyl]methanone], with 11%.
